Like-named read-outs stand apart in the source and are kept apart here.
Molecular target: T1, σ2 receptor (Rattus norvegicus, UniProt Q5U3Y7)
T1 construct: rat liver membrane homogenates (35 μg of protein); from tissue; host or cells: rat liver membrane homogenates
T1 sequence (Q5U3Y7 1-176): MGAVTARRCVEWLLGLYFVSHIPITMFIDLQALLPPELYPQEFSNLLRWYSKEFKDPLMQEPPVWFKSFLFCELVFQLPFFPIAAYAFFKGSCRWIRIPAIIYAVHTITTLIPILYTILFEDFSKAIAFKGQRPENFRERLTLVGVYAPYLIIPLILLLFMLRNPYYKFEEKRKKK
Assay: σ2 receptor binding assay, [3H]DTG, rat liver membrane homogenates
Experimental: The σ2 receptor binding assay was conducted using rat liver membrane homogenates (35 μg of protein). […] Incubations were carried out in 50 mM Tris-HCl (pH 8.0) for 120 min at 25° C. in a total incubation volume of 0.5 ml. Test compounds were added in concentrations ranging from 0.005 to 1000 nM. […] Filters were washed twice with 5 ml of ice cold buffer. Nonspecific binding was determined in the presence of 5 μM DTG.

Ki (Mean ± SEM, rat liver, [3H]DTG, read-out: Ki σ2): 13.3 ± 0.1 nM
Ki (Table I, unit inferred, read-out: σ2): 13.3 nM
SMILES: COc1cc2c(cc1OC)CN(CCNC(=O)c1cc(C)ccc1OC)CC2 [Compound 9]

From patent US7893266B2, “Detection of cancer cells in vitro using sigma-2 receptor ligands as radiotracers” (Washington University, priority 2003, dated 2011)
